PMC12457078, “Inhibition of soluble epoxide hydrolase in endotoxin induced pig lung injury” (Frontiers in Pharmacology, 2025)
“And” between values parts separate entries of the source, which are not always exact repeats. Equal entries are not always repeated.

Tested on: endotoxin-induced lung injury
Experiment: porcine model of LPS-induced acute lung injury: haemodynamics, ventilation/mechanics, blood gases, P/F, chemistry, temperature, survival
Format: in vivo, pig
Set-up: AF baseline / AF end / Ven. sat end: unit not given here
Protocol: The animals were bred for purpose at the Forslunda Agricultural School in Umeå, Sweden. The pigs were pairwise kept in 8 m^2 pens before start of experiments and were fed twice daily with a commercially available pig diet without antimicrobials, and with free access to water. Photoperiods were 12:12 h light:dark. Room temperature in their stall was 20 °C ± 1 °C.
After overnight fasting, but with free access to water and hay, animals were pre-medicated with ketamine (Ketaminol vet® 100 mg/mL; Intervet International B.V, Boxmeer, Netherlands), xylazine (Rompun® vet 20 mg/mL; Bayer Animal Health, Copenhagen, Denmark) and atropine (Atropin Mylan 0.5 mg/mL; Mylan AB, Stockholm, Sweden) by intramuscular injection before an auricular vein was cannulated. Anesthesia was induced with ketamine and midazolam (Midazolam Hameln 5 mg/mL, Hameln Pharmaceuticals, Hameln, Germany) and maintained with ketamine, midazolam, xylazine and fentanyl (Fentanyl 0.05 mg/mL, B. Braun Medical AB, Danderyd, Sweden). The animals were orotracheally intubated and ventilated with tidal volume 8–9 mL/kg, PEEP 8 cmH2O, and a respiratory rate set to achieve an end-tidal carbon dioxide of 5–5.5 kPa.
One animal served as a pharmacokinetic pilot, with arterial and venous catheters placed in a cut-down in the neck. The remaining 21 animals were used for the randomized study (Figure 1). After intubation and start of mechanical ventilation, a second auricular vein cannula was placed and infusion of either AEPU or placebo according to randomization was started. After 2 h of infusion of AEPU or placebo, an infusion of LPS was started. A bolus of 0.1 mg/kg was administered during 30 min after which the infusion rate was adjusted to 0.01 mg/kg/h. During the time between start of AEPU or placebo and LPS infusion, neck dissection was performed, exposing the v jugularis externa and carotid artery. A pulmonary artery introducer and an arterial cannula were placed in vein and artery respectively, and a pulmonary artery catheter introduced through the introducer and the tip placed in the correct position in the pulmonary artery placement guided by continuous invasive pressure monitoring or, when difficult, assisted by fluoroscopy. All surgical procedures were performed under sterile conditions.
AEPU was synthesized according to Kim et al. ([Kim et al., 2007]), delivered in 60 mg vials and dissolved in 30 mL pure ethanol as a co-solvent, of which either 20 mL was added to 980 mL of sodium chloride 9 mg/mL or 8 mL–392 mL sodium chloride, creating a solution of 0.04 mg/mL AEPU and 2% ethanol. The placebo infusion was prepared by adding either 20 mL of pure ethanol to 980 mL of sodium chloride 9 mg/mL or 8 mL of pure ethanol to 392 mL sodium chloride, creating a 2% ethanol solution. Each animal received an infusion of either 0.1 mg/kg/h AEPU or the corresponding volume of placebo solution.
A total of 200 mg of prefabricated lipopolysaccharides (LPS, Escherichia coli serotype 0,111:B4, Sigma-Aldrich (Product no L4130), St. Louis, MO, United States of America) was dissolved in 40 mL of sterile water, carefully mixed and filtered, creating a solution of 5 mg/mL. This preparation was stored frozen (−20 °C) in 1 mL partitions. For each animal, 2 mL of the thawed solution was mixed and diluted in 18 mL of sodium chloride, finally creating a 0.5 mg/mL LPS solution for infusion.
All animals were monitored with pulse oximetry, heart rate, ECG, systemic arterial blood pressure (ABP), pulmonary arterial pressure (PAP), central venous pressure (CVP) temperature, tidal volumes, respiratory rate and end tidal carbon dioxide. At baseline, and at 3 h, 6 h and at the end of the experiment, pulmonary capillary wedge pressure (PCWP) was measured together with arterial and venous blood gas analyses, as well as cardiac output calculations. […]

[1] = individual animals, 3 h, listed as sEH-i 950
[2] = individual animals, 6 h, listed as sEH-i 950
[3] = individual animals, end, listed as sEH-i 950
[4] = last available measurement, AEPU group

## CCOCCOCCOCCCCCNC(=O)NC12CC3CC(CC(C3)C1)C2 [Compound 950]
[1]
  PaO2 3 h: 22.1 kPa and 20.1 kPa and 17 kPa and 22.7 kPa and 19.3 kPa and 16.7 kPa and 9 kPa and 8.1 kPa and 7.3 kPa and 14.7 kPa
  SBP 3 h: 124 mmHg and 122 mmHg and 103 mmHg and 102 mmHg and 110 mmHg and 101 mmHg and 162 mmHg and 123 mmHg and 78 mmHg and 116 mmHg
  SPAP 3 h: 82 mmHg and 46 mmHg and 45 mmHg and 53 mmHg and 66 mmHg and 58 mmHg
  Ven. sat 3 h: 69 and 79 and 74 and 62 and 58 and 49 and 34
[2]
  CO 6 h: 3.2 L/min and 3.3 L/min and 3.1 L/min and 1.7 L/min and 2.4 L/min
  CVP 6 h: 14 mmHg and 16 mmHg and 22 mmHg and 15 mmHg and 26 mmHg and 25 mmHg
  HR 6 h: 170 and 173 and 175 and 138 and 120 and 226 and 116 and 162
  MAP 6 h: 82 mmHg and 60 mmHg and 94 mmHg and 91 mmHg and 66 mmHg and 55 mmHg
  MPAP 6 h: 35 mmHg and 44 mmHg and 42 mmHg and 24 mmHg and 49 mmHg and 41 mmHg and 43 mmHg
  PCWP 6 h: 19 mmHg and 17 mmHg and 18 mmHg and 21 mmHg
  PaCO2 6 h: 5.1 kPa and 5.9 kPa and 6.2 kPa and 5.3 kPa and 5.5 kPa and 4.4 kPa and 6.3 kPa and 8 kPa and 9.4 kPa
  PaO2 6 h: 19.6 kPa and 12.3 kPa and 11.8 kPa and 18.6 kPa and 18.5 kPa and 14.7 kPa and 8.7 kPa and 9.4 kPa and 6.8 kPa and 7.9 kPa
  SBP 6 h: 104 mmHg and 106 mmHg and 119 mmHg and 88 mmHg and 110 mmHg and 100 mmHg and 95 mmHg
  SPAP 6 h: 42 mmHg and 47 mmHg and 48 mmHg and 36 mmHg and 57 mmHg and 44 mmHg and 52 mmHg and 53 mmHg
  Ven. sat 6 h: 57 and 59 and 45 and 73 and 68 and 44 and 46 and 7 and 10
Individual animals, at max SPAP, listed as sEH-i 950
  MPAP (vid max SPAP): 60 mmHg and 52 mmHg and 62 mmHg and 57 mmHg and 84 mmHg and 66 mmHg and 47 mmHg
[3]
  CO end: 3.9 L/min and 2.8 L/min and 3.6 L/min and 5.2 L/min and 0 L/min and 1.4 L/min
  CVP end: 17 mmHg and 15 mmHg and 13 mmHg and 20 mmHg
  HR end: 163 and 147 and 150 and 130 and 165 and 160 (0) and 135
  MAP end: 55 mmHg and 56 mmHg and 105 mmHg and 64 mmHg and 67 mmHg and 42 mmHg and 43 mmHg
  MPAP end: 30 mmHg and 50 mmHg and 33 mmHg and 24 mmHg and 40 mmHg and 43 mmHg and 48 mmHg
  PCWP end: 17 mmHg and 22 mmHg and 16 mmHg and 15 mmHg and 25 mmHg
  PaCO2 end: 5.3 kPa and 6.1 kPa and 4.8 kPa and 4.4 kPa and 7.3 kPa and 6.4 kPa
  PaO2 end: 19.9 kPa and 13.4 kPa and 12 kPa and 19.5 kPa and 12.2 kPa and 4.4 kPa and 8.7 kPa
  SBP end: 102 mmHg and 103 mmHg and 116 mmHg and 97 mmHg and 92 mmHg and 66 mmHg and 70 mmHg
  SPAP end: 38 mmHg and 57 mmHg and 43 mmHg and 29 mmHg and 47 mmHg and 49 mmHg and 54 mmHg
  Ven. sat end: 69 and 54 and 58 and 56 and 70 and 19
Individual animals, maximum, listed as sEH-i 950
  SPAP max: 73 mmHg and 71 mmHg and 91 mmHg and 70 mmHg and 72 mmHg and 84 mmHg and 80 mmHg and 75 mmHg
[4]
  Bilirubin: 11.1 (8.6–18.8) μmol/L
  CVP: 16 (15–17) mmHg
  Compliance: 7.9 (7.3–9.7) ml/cmH2O
  Creatinine: 133 (102–152) μmol/L
  Hemoglobin: 116 (107–128) g/L
  MAP: 66 (55–97) mmHg
  MPAP: 46 (35–50) mmHg
  P/F: 22 (11–42) kPa
  PCWP: 18 (16–21) mmHg
  PIP: 33 (29–37) cmH20
  PVR: 643 (390–1057) dynes*sec/cm^5
  PaCO2: 5.8 (4.9–7.1) kPa
  SVR: 1314 (1089–2375) dynes*sec/cm^5
  SvO2: 55 (25–66) %
  Temperature: 38.5 (38.0–40.1) °C
  pH: 7.16 (7.07–7.26)
Time of death or termination, individual animals, listed as sEH-i 950
  Mortalitet: Tidpunkt: 6 h and 9 h and 8 h
